Data set [1] concerns O-GlcNAcase in rat PC-12 cells. As to the kind of experiment: Cell-based ELISA of O-GlcNAcylated protein (RL-2 antibody). Particulars: 24 h treatment, O-GlcNAcylated protein level. From the text: Assay for Determination of Cellular Activity for Compounds that Inhibit O-GlcNAcase Activity
Inhibition of O-GlcNAcase, which removes O-GlcNAc from cellular proteins, results in an increase in the level of O-GlcNAcylated protein in cells. An increase in O-GlcNAcylated protein can be measured by an antibody, such as RL-2, that binds to O-GlcNAcylated protein. The amount of O-GlcNAcylated protein:RL2 antibody interaction can be measured by enzyme linked immunosorbant assay (ELISA) procedures.
A variety of tissue culture cell lines, expressing endogenous levels of O-GlcNAcase, can be utilized; examples include rat PC-12, and human U-87, or SK—N—SH cells. […] If desired, the total protein concentration of samples is determined using 20 μL of the sample using the BCA method.
The ELISA portion of the assay is performed in a black Maxisorp 96-well plate that is coated overnight at 4° C. with 100 μL/well of the cell lysate (1:10 dilution of the lysate with PBS containing protease inhibitors, phosphatase inhibitors, and PMSF). […] The detection reaction is incubated for 15 minutes at room temperature and then read with excitation at 530 nm and emission at 590 nm.
The amount of O-GlcNAcylated protein, as detected by the ELISA assay, is plotted for each concentration of test compound using standard curve fitting algorithms for sigmoidal dose response curves. […]

Data set [2] can be described thus: Apparent permeability (Papp), bi-directional transport. In kind it is in vitro ADME. The conditions noted are these: pig, LLC-PK1, t=3 h, average of A to B and B to A, read-out: Papp LLC-PK1 cells. The procedure: Assay for Determination of Apparent Permeability (Papp)
Bi-directional transport is evaluated in LLC-PK1 cells in order to determine apparent permeability (Papp). LLC-PK1 cells can form a tight monolayer and therefore can be used to assess vectorial transport of compounds from basolateral to apical (B→A) and from apical to basolateral (A→B).
To determine Papp, LLC-PK1 cells are cultured in 96-well transwell culture plates (Millipore). Solutions containing the test compounds (1 μM) are prepared in Hank's Balanced Salt Solution with 10 mM HEPES. Substrate solution (150 μL) is added to either the apical (A) or the basolateral (B) compartment of the culture plate, and buffer (150 μL) is added to the compartment opposite to that containing the compound. At t=3 h, 50 μL samples are removed from both sides of monolayers dosed with test compound and placed in 96 well plates, scintillant (200 μL) or internal standard (100 μL labetolol 1 μM) is added to the samples and concentration is determined by liquid scintillation counting in a MicroBeta Wallac Trilux scintillation counter (Perkin Elmer Life Sciences, Boston, Mass.) or by LCMS/MS (Applied Biosystems SCIEX API 5000 triple quadruple mass spectrometer). [^3H]Verapamil (1 μM) is used as the positive control. The experiment is performed in triplicate.
The apparent permeability, Papp, is calculated by the following formula for samples taken at t=3 h:
[formula] Where: Volume of Receptor Chamber is 0.15 mL; Area of membrane is 0.11 cm^2; the Initial Concentration is the sum of the concentration measured in the donor plus concentration measured in receiver compartments at t=3 h; A in Concentration is concentration in the receiver compartment at 3 h; and A in Time is the incubation time (3×60×60=10800 s). Papp is expressed as 10^−6 cm/s. The Papp (LLC-PK1 cells) are the average of the Papp for transport from A to B and Papp for transport from B to A at t=3 h: […]

pEC50: −log10 of the molar value.

Regarding `CC(=O)NC[C@@H]1[C@@H](O)[C@H](O)[C@@H](CO)N1CCCc1ccc(-c2ccccc2)cc1` [Example 3, N-(((2R,3R,4R,5R)-1-(3-([1,1′-biphenyl]-4-yl)propyl)-3,4-dihydroxy-5-(hydroxymethyl)pyrrolidin-2-yl)methyl)acetamide], the pEC50 in data set [1] was 6.18. Besides, the Papp at 3 h, 1 μM in data set [2] is 5 ×10⁻⁶ cm/s.
